Results published in ChEMBL document CHEMBL1201862, “PubChem BioAssay data set” (2004).
The source made the active and inactive calls.

Key:
[1] = molecular target: 5-hydroxytryptamine receptor 1A (Homo sapiens, UniProt P08908); assay type: functional
[2] = molecular target: Lysosomal acid glucosylceramidase (Homo sapiens, UniProt P04062); test: Dose response cell-based high throughput screening assay to identify enhancers of beta-glucosidase activity. [Related pubchem assays: 784 ]; assay type: functional
Lysosomal acid glucosylceramidase, sequence (P04062 whole entry): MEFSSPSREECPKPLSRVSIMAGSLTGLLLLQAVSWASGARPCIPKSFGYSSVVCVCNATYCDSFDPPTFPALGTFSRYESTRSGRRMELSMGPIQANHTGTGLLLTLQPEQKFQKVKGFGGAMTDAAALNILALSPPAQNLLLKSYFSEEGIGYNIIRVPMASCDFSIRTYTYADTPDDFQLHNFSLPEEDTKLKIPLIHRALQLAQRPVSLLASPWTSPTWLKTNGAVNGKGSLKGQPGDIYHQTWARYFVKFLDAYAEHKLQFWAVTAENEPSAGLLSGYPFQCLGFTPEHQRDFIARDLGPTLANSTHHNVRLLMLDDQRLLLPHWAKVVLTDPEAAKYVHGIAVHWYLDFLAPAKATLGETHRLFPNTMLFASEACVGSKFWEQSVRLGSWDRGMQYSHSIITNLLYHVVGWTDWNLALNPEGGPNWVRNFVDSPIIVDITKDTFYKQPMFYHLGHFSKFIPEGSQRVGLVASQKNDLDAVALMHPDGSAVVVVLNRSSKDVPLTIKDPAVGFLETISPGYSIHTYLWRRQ

Vibrio harveyi [3] = test: inhibitors of AI-2 quorum sensing in V. harveyi, dose response, LuxS, LuxPQ, dry powder, set 2 (AID 493072); assay type: functional, organism-based
Vibrio harveyi [4] = test: Quorum Sensing, LuxS, LuxPQ Measured in Microorganism System Using Plate Reader - 2035-01_Inhibitor_DoseNoFile_DryPowder_Activity. [Related pubchem assays (depositor defined):AID2106]; assay type: functional, organism-based
[5] = molecular target: T1, Dual specificity protein phosphatase 3 (Homo sapiens, UniProt P51452); test: MOA VHR1 Fluorescent secondary assay for identification of redox-state modulating compounds. [Related pubchem assays (depositor defined):AID1654, AID1661, AID1878, AID1957]
T1 sequence (P51452 whole entry): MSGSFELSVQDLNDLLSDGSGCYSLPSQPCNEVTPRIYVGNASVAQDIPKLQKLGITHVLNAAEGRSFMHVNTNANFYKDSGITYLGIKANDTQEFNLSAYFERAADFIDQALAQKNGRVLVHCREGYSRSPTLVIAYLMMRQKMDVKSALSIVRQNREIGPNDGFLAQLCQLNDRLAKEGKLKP

[6] = molecular target: T2, Tyrosine-protein phosphatase non-receptor type 7 (Homo sapiens, UniProt P35236); test: redox-dependent HePTP inhibition, mechanism study, biochemical, fluorescence (AID 2068); assay type: functional
T2 sequence (P35236 whole entry): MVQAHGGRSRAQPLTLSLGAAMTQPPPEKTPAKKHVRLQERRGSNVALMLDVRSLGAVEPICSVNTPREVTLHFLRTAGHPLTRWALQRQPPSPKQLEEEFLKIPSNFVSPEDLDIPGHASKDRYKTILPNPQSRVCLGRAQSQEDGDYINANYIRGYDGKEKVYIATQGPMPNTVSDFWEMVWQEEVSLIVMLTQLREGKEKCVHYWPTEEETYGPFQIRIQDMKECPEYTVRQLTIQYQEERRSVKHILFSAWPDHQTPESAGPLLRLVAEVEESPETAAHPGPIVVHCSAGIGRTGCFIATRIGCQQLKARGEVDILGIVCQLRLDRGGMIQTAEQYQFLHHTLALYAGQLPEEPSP

[7] = molecular target: Glyceraldehyde-3-phosphate dehydrogenase (Homo sapiens, UniProt P04406)
Glyceraldehyde-3-phosphate dehydrogenase, sequence (P04406 whole entry): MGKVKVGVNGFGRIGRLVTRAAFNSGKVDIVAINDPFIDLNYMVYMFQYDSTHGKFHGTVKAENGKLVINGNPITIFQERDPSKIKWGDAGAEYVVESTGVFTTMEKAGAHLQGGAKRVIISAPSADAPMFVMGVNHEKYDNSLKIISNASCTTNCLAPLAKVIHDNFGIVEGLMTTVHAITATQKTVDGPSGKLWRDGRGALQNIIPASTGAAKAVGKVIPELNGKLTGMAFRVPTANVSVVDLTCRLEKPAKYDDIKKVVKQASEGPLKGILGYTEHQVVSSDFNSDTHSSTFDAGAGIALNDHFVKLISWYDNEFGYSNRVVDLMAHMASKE

[8] = molecular target: T3, Short transient receptor potential channel 4 (Mus musculus, UniProt Q9QUQ5); test: mouse TRPC4 channel activators, dose response, cell-based, HEK293 TRPC4/mu-opioid, Fluo-4 calcium (AID 434937); assay type: functional
T3 sequence (Q9QUQ5 whole entry): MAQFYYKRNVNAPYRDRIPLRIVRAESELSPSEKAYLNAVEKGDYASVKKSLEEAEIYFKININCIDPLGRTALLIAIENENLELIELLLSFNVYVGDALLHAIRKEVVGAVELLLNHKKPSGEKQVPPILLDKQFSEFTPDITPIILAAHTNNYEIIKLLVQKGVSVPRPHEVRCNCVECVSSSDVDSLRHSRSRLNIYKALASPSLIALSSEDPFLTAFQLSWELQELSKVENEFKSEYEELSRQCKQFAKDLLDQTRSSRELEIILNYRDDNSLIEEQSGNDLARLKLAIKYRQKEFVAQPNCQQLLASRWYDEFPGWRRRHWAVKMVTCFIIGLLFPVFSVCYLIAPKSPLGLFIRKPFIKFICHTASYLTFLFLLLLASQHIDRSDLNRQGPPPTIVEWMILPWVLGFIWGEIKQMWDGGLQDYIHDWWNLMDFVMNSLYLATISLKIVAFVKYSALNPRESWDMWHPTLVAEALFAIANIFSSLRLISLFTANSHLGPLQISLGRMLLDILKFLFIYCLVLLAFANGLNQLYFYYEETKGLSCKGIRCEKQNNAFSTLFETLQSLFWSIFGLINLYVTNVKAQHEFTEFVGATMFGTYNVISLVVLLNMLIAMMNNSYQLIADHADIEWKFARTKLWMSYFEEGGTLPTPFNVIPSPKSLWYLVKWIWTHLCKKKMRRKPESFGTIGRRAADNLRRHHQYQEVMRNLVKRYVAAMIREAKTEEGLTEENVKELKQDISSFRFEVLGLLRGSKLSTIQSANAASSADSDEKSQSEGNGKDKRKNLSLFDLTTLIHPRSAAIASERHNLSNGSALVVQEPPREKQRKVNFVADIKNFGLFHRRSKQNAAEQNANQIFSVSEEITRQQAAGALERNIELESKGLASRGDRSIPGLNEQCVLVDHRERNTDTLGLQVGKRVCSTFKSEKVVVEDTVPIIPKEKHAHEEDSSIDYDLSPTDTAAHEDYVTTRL

[9] = molecular target: T4, Dual specificity protein phosphatase 6 (Rattus norvegicus, UniProt Q64346)
T4 sequence (Q64346 whole entry): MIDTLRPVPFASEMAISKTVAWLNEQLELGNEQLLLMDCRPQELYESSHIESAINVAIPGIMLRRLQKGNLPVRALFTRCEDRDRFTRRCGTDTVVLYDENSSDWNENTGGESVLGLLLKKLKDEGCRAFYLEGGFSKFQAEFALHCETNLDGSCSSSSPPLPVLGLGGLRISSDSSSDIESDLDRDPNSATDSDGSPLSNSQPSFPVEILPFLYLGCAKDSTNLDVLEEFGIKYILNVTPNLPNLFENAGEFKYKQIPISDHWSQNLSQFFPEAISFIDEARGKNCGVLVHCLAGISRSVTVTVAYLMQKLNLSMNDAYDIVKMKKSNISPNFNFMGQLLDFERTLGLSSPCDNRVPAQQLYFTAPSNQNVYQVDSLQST

[10] = molecular target: T1, Dual specificity protein phosphatase 3; test: SAR VHR1 Fluorescent Assay for In Vitro dose response studies. [Related pubchem assays (depositor defined):AID1654, AID1661, AID1878, AID1992, AID2004, AID2070, AID2085]; assay type: functional
[11] = molecular target: T4, Dual specificity protein phosphatase 6; assay type: functional
[12] = molecular target: T2, Tyrosine-protein phosphatase non-receptor type 7; assay type: functional
[13] = molecular target: T5, Alkaline phosphatase, tissue-nonspecific isozyme (Homo sapiens, UniProt P05186)
T5 sequence (P05186 whole entry): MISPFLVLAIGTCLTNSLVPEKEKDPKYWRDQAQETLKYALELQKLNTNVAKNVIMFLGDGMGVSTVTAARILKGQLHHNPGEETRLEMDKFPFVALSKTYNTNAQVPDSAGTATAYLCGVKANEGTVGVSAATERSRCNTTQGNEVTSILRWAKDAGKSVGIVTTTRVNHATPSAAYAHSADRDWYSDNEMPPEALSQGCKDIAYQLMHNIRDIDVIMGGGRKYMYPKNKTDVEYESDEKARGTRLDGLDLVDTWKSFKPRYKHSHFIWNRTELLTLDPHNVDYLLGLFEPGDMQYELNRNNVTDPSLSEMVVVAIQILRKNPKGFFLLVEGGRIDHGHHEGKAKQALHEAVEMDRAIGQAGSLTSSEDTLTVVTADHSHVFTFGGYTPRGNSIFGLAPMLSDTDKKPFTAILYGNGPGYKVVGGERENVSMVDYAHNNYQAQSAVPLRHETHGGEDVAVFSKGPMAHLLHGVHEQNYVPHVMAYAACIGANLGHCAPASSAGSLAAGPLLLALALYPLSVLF

Protein RecA = molecular target: T6, Protein RecA (Mycobacterium tuberculosis, UniProt P9WHJ3); test: Fluorescence Cell-Free Homogeneous Dose Retest to Identify Inhibitors of RecA-Intein Splicing Activity. [Related pubchem assays (depositor defined):AID2097, AID2223, AID489010, AID492950]; assay type: functional
T6 sequence (P9WHJ3 whole entry): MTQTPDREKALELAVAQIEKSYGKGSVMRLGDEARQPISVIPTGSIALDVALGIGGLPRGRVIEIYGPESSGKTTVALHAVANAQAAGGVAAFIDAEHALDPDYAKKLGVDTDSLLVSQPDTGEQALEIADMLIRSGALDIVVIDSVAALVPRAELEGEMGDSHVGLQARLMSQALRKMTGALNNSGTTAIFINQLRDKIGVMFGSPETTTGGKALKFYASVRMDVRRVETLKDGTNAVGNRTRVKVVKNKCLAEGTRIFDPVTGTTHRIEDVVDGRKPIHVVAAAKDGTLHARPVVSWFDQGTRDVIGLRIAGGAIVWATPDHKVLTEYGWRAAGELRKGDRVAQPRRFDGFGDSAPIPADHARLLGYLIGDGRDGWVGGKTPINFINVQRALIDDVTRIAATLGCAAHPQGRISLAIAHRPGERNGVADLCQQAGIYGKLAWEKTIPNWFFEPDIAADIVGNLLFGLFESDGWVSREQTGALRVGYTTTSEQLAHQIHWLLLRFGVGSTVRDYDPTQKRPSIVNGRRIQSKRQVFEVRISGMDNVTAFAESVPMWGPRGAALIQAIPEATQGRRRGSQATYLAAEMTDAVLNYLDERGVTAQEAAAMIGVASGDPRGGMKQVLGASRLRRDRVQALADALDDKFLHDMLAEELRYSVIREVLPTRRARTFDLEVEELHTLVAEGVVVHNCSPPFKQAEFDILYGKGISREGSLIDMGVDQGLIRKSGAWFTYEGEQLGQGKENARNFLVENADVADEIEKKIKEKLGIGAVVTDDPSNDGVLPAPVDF

Hexokinase HKDC1 = Hexokinase HKDC1 (Homo sapiens, UniProt Q2TB90); test: HKDC1 hexokinase inhibitors, dose response, biochemical, W721R variant (AID 504729); assay type: functional
Hexokinase HKDC1, sequence (Q2TB90 whole entry): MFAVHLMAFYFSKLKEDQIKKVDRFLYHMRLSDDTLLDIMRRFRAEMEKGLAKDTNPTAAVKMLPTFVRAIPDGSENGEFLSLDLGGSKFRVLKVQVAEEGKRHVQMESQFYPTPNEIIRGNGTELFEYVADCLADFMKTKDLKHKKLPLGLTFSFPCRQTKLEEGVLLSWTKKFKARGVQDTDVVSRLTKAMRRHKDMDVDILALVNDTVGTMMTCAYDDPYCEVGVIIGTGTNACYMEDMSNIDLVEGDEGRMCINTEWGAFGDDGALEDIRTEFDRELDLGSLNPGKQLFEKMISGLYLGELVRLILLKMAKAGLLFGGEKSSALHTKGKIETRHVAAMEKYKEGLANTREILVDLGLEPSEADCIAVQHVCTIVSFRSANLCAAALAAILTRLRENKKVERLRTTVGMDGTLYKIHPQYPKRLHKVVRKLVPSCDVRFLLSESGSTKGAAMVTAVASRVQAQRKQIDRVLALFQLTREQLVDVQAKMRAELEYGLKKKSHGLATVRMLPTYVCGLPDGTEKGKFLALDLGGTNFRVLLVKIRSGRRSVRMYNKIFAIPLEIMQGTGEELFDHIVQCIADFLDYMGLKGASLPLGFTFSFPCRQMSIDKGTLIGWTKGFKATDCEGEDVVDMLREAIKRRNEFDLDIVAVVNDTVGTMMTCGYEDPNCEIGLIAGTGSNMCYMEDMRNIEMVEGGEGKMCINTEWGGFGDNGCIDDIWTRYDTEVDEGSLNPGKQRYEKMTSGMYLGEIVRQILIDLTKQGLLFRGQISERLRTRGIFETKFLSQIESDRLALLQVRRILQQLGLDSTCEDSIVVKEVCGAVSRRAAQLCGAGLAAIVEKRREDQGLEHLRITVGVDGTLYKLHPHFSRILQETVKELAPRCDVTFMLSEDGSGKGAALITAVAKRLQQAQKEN

[14] = molecular target: T7, Replicative DNA helicase DnaB (Mycobacterium tuberculosis, UniProt P9WMR3); test: DnaB intein splicing inhibitors, dose response, biochemical, cell-free fluorescence (AID 449749); assay type: functional
T7 sequence (P9WMR3 whole entry): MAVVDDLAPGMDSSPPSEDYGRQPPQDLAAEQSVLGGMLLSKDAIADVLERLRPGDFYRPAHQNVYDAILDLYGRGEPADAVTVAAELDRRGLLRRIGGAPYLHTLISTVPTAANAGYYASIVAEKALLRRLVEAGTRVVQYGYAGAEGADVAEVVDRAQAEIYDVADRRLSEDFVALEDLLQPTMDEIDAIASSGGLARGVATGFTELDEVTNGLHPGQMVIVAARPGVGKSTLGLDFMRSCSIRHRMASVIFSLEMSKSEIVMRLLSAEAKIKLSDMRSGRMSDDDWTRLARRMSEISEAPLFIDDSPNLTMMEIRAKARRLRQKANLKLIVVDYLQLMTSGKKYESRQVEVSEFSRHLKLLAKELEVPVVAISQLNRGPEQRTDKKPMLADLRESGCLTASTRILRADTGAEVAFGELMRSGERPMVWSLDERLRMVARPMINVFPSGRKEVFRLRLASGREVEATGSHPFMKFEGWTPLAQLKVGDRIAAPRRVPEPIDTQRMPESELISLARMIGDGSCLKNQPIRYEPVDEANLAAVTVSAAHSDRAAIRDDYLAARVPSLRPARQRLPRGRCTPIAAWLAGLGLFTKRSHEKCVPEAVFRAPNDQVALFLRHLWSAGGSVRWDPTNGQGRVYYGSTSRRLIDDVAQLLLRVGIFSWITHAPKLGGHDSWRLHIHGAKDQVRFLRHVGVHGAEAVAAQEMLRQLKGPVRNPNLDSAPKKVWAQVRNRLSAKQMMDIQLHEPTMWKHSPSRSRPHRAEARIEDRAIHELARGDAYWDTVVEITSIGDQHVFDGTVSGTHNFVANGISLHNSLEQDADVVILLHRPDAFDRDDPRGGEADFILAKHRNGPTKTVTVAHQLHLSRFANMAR

[15] = molecular target: Heat shock 70 kDa protein 1A (Homo sapiens, UniProt P0DMV8); test: Hsp70 inhibitors, SAR follow-up, biochemical, fluorescence polarization (AID 1072)
Heat shock 70 kDa protein 1A, sequence (P0DMV8 whole entry): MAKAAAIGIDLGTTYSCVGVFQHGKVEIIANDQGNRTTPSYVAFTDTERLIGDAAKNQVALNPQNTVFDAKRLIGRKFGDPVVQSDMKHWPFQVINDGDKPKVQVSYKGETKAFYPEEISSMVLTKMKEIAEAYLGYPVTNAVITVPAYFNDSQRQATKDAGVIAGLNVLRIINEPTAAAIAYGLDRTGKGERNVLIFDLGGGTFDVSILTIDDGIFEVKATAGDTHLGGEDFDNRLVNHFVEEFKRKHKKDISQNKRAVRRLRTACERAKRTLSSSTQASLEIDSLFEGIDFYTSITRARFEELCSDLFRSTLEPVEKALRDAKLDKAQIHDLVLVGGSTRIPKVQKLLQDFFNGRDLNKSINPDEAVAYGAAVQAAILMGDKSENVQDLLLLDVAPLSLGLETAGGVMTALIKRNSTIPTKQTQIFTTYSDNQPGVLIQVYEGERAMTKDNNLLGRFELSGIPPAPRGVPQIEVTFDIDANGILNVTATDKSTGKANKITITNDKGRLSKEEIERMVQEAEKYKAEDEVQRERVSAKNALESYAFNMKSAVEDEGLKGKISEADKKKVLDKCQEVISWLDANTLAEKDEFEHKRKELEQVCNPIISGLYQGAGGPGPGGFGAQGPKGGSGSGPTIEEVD

[16] = molecular target: Heat shock cognate 71 kDa protein (Homo sapiens, UniProt P11142); test: In Vitro Hsc70 Dose Response Fluorescence Polarization Assay. [Related pubchem assays: 1072 ]
Heat shock cognate 71 kDa protein, sequence (P11142 whole entry): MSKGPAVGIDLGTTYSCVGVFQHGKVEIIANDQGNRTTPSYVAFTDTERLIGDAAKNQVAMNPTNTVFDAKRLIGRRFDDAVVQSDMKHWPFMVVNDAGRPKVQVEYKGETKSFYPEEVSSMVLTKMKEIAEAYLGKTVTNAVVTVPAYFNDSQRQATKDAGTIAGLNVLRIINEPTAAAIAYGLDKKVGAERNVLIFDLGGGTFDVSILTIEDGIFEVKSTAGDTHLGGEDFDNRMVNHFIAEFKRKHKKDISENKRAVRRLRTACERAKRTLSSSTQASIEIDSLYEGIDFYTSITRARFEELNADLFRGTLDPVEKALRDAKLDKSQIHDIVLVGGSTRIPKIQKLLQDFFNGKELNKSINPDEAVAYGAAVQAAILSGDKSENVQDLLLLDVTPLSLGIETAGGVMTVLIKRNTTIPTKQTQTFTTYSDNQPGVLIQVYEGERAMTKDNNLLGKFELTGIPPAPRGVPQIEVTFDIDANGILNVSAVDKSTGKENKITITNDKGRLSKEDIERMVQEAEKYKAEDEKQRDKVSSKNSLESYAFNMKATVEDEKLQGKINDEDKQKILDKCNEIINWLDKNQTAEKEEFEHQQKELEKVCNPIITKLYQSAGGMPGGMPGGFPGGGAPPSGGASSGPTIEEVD

Chaperone protein dnaK = Chaperone protein dnaK (Escherichia coli, UniProt C3TRK2); test: DnaK beta-domain binding affinity, SAR follow-up, orthogonal assay for DnaK modulator project, biophysical, isothermal titration calorimetry, full-length DnaK (AID 1495)
Chaperone protein dnaK, sequence (C3TRK2 whole entry): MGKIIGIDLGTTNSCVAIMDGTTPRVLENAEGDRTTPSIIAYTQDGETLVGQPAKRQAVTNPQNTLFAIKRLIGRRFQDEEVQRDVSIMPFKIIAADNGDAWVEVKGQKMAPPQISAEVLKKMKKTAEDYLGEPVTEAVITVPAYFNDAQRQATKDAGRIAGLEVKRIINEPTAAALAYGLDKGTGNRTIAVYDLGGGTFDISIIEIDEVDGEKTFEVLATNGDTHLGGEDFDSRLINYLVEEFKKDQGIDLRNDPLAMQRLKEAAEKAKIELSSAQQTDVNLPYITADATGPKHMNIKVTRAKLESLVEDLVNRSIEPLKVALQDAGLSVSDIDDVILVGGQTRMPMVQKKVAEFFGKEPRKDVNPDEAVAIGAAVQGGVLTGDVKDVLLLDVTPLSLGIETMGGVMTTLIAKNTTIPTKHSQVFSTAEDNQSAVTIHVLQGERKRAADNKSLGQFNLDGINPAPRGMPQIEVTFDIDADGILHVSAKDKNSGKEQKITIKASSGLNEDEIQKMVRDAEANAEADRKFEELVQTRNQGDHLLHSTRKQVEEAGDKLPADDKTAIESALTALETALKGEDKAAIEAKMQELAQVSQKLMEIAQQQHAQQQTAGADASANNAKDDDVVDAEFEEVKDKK

[17] = molecular target: T1, Dual specificity protein phosphatase 3; test: VHR1 inhibitor Ki determination, SAR follow-up, biochemical, colorimetric (AID 2004)

5-hydroxytryptamine receptor 1A, sequence (P08908 whole entry): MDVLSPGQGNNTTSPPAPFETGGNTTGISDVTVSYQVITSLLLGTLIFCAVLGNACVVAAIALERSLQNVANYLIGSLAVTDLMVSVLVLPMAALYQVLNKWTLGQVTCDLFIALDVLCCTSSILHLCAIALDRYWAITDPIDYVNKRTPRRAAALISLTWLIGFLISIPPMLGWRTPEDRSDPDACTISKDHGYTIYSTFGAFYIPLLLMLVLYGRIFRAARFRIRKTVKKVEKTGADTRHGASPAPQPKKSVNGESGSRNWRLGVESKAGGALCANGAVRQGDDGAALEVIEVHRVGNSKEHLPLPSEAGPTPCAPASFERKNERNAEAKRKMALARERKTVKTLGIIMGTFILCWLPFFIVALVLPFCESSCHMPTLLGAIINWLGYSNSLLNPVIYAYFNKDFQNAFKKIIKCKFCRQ

**Q.** What does the source list for `CCc1ccc(NC(=O)Cn2c(SC)nc3ccccc32)cc1`?
**A.** EC50 [1]: > 50 µM (not active); EC50 [2]: > 50 µM (not active)

**Q.** How did the AC50 (Vibrio harveyi [3]) turn out when `C=Cn1c(C(=O)O)ccc1-c1ccc(CC)cc1` was run?
**A.** 5.53 µM (active)

**Q.** And the AC50 (Vibrio harveyi [3]; Vibrio harveyi)?
**A.** 4.66 µM (active)

**Q.** What about the AC50 (Vibrio harveyi [4]) of the same compound?
**A.** 2.73 µM (active)

**Q.** `Cc1cc2nc3s/c(=C/c4ccc(-c5ccccc5C(=O)O)o4)c(=O)n3c2cc1C` was tested. Which IC50 [5] did it give?
**A.** 2.39 µM (active)

**Q.** What about the IC50 [6] of the same compound?
**A.** 2.65 µM (active)

**Q.** And the IC50 [7]?
**A.** > 100 µM (not active)

**Q.** What about the EC50 [8] of the same compound?
**A.** 5.96 µM (active)

**Q.** What about the IC50 [9] of the same compound?
**A.** 9 µM (active)

**Q.** What about the IC50 [10] of the same compound?
**A.** 7.49 µM (active)

**Q.** What about the IC50 [11] of the same compound?
**A.** 26.4 µM (active)

**Q.** What about the IC50 [12] of the same compound?
**A.** 3.63 µM (active)

**Q.** `Cc1ccc(O)c(-c2cc(C(=O)NCc3ccccc3)[nH]n2)c1` was tested. Which EC50 [13] did it give?
**A.** > 100 µM (not active)

**Q.** Which EC50 (Protein RecA) does the source give for `CC(OC(=O)c1cc(O)c2ccccc2c1O)C(=O)Nc1ccc(C(N)=O)cc1` (stereo not given) here?
**A.** 4.51 µM (active)

**Q.** And the IC50 (Hexokinase HKDC1)?
**A.** 52.7 µM (inactive)

**Q.** What about the AC50 [14] of the same compound?
**A.** 5.11 µM (active)

**Q.** With `O=C(O)C1Nc2c(I)cccc2C2C=CCC12` (stereo not given) as the compound, how does the IC50 [15] read?
**A.** 3.13 µM (active)

**Q.** And the IC50 [7]?
**A.** 47.8 µM (active)

**Q.** What about the IC50 [9] of the same compound?
**A.** > 100 µM (inactive)

**Q.** And the IC50 [16]?
**A.** 14.1 µM (active)

**Q.** And the IC50 [11]?
**A.** > 100 µM (inactive)

**Q.** What about the IC50 [12] of the same compound?
**A.** 71.4 µM (active)

**Q.** `O=C(NCc1ccc(Cl)c(Cl)c1)c1cccs1` was tested. Which Kd (Chaperone protein dnaK) did it give?
**A.** 7.3 µM (active)

**Q.** `COc1ccc(C2C3C(=O)N(c4ccccc4)C(=O)C3N3CCCN23)cc1` (stereo not given) was tested. Which Ki [17] did it give?
**A.** 112 µM (inactive)
